# According to patent US8318495B1, “Hematopoietic progenitor cell gene transduction” (Case Western Reserve University, priority 1998, dated 2012):
# Values joined by “and” are separate entries in the source; they are usually repeats but may differ in a detail not shown here. Equal entries are not always repeated. Where two headings read alike, the source gives them in different places.
# What was measured:
# [1] = tested on: ΔMGMT transduced hematopoietic CD34+ progenitor cells; assay: Drug resistance: CFU survival after BG plus TMZ or BCNU, ΔMGMT transduced cells; assay type: cell-based, human; conditions: for IC50 / IC90: Homo sapiens, 10 μM BG 1 hour, then drug 2 hours
# Description: CD34+ cells were transduced with MFG-ΔMGMT high titer retroviral supernatant obtained as described in Reese et al. 1996. ΔMGMT encodes a mutant form of O-^6 alkylguanine DNA alkyltransferase (ΔAGT) and contains a point mutation which renders the protein resistant to the inhibitor O^6-benzylguanine (BG). CD34+ cells transduced with ΔMGMT are resistant to the drug combinations BG and 1,3bis(2-chloroethly)-1-nitrosourea (BCNU) (Reese et al. 1996) and BG and temozolomide (TMZ) (Reese et al. 1998). The CD34+ cells were transduced as follows: pMFG-wtMGMT or pMFG-ΔMGMT and pSV2neo DNA were cotransfected into the packaging line GP+E86, followed by viral supernatant infection of the amphotropic cell line GP+envAm12 (Markowitz, D. et al. 1988) (Arthur Bank, Columbia University). To increase titer, a supernatant “ping-pong” method was used (Bodine et al. 1990).
# (§1) Drug resistance conferred by ΔMGMT To evaluate drug resistance conferred by ΔMGMT, primary CFU survival at the TMZ or BCNU IC50 and IC90 in transduced or untransduced cells was compared. IC50 (or IC90) is the determination of CFU survival after exposure to TMZ or BCNU in the presence of the AGT inhibitor BG. Following a retroviral transduction period of 72-96 hours, hematopoietic CD34+ progenitor cells were pretreated for 1 hour with 10 μM BG followed by increasing concentrations of TMZ or BCNU for 2 hours. Cells were washed free of drug, plated in methylcellulose and 5 μM BG was added to maintain depletion of endogenous AGT. After culture in methylcellulose, the colonies formed were counted as either CFU-GM, BFU-E and CFU-GEMM (referred to as CFU). Individual CFU were collected from 10 independent experiments, each from a different donor.
# [2] = tested on: untransduced hematopoietic CD34+ progenitor cells; assay: Drug resistance: CFU survival after BG plus TMZ or BCNU, untransduced cells; assay type: cell-based; conditions: Homo sapiens, 10 μM BG 1 hour, then drug 2 hours
# Protocol: as §1
smiles,measurement,setting,value
"O=NN(CCCl)C(=O)NCCCl [BCNU, 1,3bis(2-chloroethly)-1-nitrosourea]",increase in the IC90 after exposure to BG,[1]; Dexter,2.5 fold
same,average increase in the IC50 after exposure to BG,[1]; Dexter (n=2),5.6 fold
same,average fold increase in the IC50 after exposure to BG,"[1]; FN (TMZ n=2, BCNU n=1)",2.8 fold
same,increase in the IC90 after exposure to BG,"[1]; FN (TMZ n=2, BCNU n=1)",> 10 fold
same,average increase in the IC50 after exposure to BG,[1]; allo MSC (n=1),2 fold
same,increase in the IC90 after exposure to BG,[1]; allo MSC (n=1),> 6 fold
same,fold increase in ΔMGMT/untransduced CFU IC50,[1]; stroma Allo MSC,5.6 fold
same,fold increase in ΔMGMT/untransduced CFU IC90,[1]; stroma Allo MSC,>6 fold
same,fold increase in ΔMGMT/untransduced CFU IC90,[1]; stroma Dexter,2.5 fold
same,fold increase in ΔMGMT/untransduced CFU IC50,[1]; stroma FN,2.8 fold
"Cn1nnc2c(C(N)=O)ncn2c1=O [TMZ, temozolomide]",IC50,[2]; stroma Allo MSC,25.5 µM
same,IC90,[2]; stroma Allo MSC,48 µM
same,IC90,[2]; stroma FN,29 µM
same,IC50,[2]; stroma auto MSC,9.8 µM
same,IC90,[2]; stroma auto MSC,29 µM
same,average fold increase in the IC50 after exposure to BG,"[1]; FN (TMZ n=2, BCNU n=1)",7.7 fold
same,increase in the IC90 after exposure to BG,"[1]; FN (TMZ n=2, BCNU n=1)",> 8.2 fold
same,IC50,"[1]; read-out: CFU IC50 ΔMGMT, stroma Allo MSC",71 µM
same,IC50,"[1]; read-out: CFU IC50 ΔMGMT, stroma FN",123 µM
same,IC50,"[1]; read-out: CFU IC50 ΔMGMT, stroma auto MSC",64 µM
same,IC90,"[1]; read-out: CFU IC90 ΔMGMT, stroma Allo MSC",> 300 µM
same,IC90,"[1]; read-out: CFU IC90 ΔMGMT, stroma FN",> 300 µM
same,IC90,"[1]; read-out: CFU IC90 ΔMGMT, stroma auto MSC",> 300 µM
same,average fold increase in the IC50 after exposure to BG,[1]; allo MSC and auto MSC (n=4),5.2 fold
same,increase in the IC90 after exposure to BG,[1]; allo MSC and auto MSC (n=4),> 9.8 fold
same,fold increase in ΔMGMT/untransduced CFU IC50,[1]; stroma Allo MSC,2.8 fold and 2.4 fold
same,fold increase in ΔMGMT/untransduced CFU IC90,[1]; stroma Allo MSC,>6 fold and >5.3 fold
same,fold increase in ΔMGMT/untransduced CFU IC90,[1]; stroma FN,>10.3 fold and >6 fold
same,fold increase in ΔMGMT/untransduced CFU IC50,[1]; stroma auto MSC,6.5 fold and 8.9 fold
same,fold increase in ΔMGMT/untransduced CFU IC90,[1]; stroma auto MSC,>10.3 fold and 17.7 fold
